Results: patent publication US9718823B2, “2, 6-Di-nitrogen-containing substituted purine derivative, and preparation method, pharmaceutical composition and use thereof” (Zhejiang Medicine Co., Ltd. Xinchang Pharmaceutical Factory, priority 2013, dated 2017)
Values joined by “and” are separate entries in the source; they are usually repeats but may differ in a detail not shown here. Identical values can stand only once. Like-named read-outs stand apart in the source and are kept apart here.

How the values were obtained:
[1] = biological target: T1, PI3Kδ (Homo sapiens, UniProt O00329); test: Inhibitory activity to PI3K δ, PI 3-Kinase (human) HTRF Assay kit; type: biochemical; settings: for Inhibition rate % to PI3K delta: dihydrate di-methanesulfonate
T1 construct: purchased Millipore 14-604
T1 sequence (O00329 whole entry): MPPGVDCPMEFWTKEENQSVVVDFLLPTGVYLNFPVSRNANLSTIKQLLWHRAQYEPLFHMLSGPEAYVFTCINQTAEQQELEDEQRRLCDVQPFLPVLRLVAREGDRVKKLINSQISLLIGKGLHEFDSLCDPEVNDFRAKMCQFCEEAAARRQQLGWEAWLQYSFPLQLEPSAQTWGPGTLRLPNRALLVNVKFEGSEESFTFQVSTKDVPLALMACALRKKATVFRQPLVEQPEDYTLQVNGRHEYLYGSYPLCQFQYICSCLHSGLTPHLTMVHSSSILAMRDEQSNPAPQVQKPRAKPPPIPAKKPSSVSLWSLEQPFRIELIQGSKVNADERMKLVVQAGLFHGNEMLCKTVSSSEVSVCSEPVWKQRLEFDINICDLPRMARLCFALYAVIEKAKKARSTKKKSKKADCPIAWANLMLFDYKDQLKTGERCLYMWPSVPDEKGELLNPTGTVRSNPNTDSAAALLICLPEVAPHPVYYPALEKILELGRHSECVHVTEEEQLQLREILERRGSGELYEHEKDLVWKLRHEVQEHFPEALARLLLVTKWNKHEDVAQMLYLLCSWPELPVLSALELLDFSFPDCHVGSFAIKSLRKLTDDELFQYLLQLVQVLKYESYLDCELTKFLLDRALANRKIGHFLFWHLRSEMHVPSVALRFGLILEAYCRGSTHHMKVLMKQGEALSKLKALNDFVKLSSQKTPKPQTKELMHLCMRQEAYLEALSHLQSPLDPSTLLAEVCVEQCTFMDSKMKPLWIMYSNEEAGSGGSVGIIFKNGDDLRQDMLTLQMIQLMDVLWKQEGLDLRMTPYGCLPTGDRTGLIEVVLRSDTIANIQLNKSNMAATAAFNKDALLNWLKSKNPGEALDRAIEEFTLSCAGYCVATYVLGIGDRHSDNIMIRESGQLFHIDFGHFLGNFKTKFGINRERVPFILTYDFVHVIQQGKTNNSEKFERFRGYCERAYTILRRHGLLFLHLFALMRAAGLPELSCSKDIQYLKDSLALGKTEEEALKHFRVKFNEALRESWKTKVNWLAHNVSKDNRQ
T1 sequence (P27986 whole entry partner): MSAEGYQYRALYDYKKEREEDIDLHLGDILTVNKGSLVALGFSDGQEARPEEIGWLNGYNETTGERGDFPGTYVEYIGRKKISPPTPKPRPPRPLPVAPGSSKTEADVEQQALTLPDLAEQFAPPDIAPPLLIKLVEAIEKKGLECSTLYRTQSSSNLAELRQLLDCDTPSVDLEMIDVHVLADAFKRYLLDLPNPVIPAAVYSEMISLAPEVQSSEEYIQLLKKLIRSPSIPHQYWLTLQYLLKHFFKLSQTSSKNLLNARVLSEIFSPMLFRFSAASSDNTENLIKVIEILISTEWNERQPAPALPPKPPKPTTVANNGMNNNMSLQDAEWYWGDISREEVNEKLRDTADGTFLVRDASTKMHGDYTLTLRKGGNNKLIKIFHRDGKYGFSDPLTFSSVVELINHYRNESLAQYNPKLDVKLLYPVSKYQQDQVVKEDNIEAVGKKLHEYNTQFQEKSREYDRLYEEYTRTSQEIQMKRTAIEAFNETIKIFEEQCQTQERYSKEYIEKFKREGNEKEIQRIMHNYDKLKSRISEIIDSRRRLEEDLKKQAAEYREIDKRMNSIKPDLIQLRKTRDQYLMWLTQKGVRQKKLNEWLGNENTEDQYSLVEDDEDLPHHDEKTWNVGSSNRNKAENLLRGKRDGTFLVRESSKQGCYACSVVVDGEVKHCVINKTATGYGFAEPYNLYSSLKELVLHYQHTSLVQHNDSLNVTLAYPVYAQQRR
How it was run: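 Inhibition of human PI3Kδ was assessed with the Millipore PI 3-Kinase (human) HTRF Assay kit. PI3Kδ was screened at 2 ng/well, diluted in 2×PIP2 operating fluid. Reactions were 20 μL and contained 100 μM ATP. Stop solution was Stop A and Stop B mixed 3:1. Detection solution was DM C, DM A and DM B mixed 18:1:1. Compounds were prepared from DMSO stocks, and percent inhibition was reported.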

[2] = tested on: BT474 human breast cancer cell strain; test: Antitumor cell proliferation in vitro, CCK-8 detection kit, BT474; type: cell-based; settings: BT-474 cells, 1st and 2nd test where printed
Experimental: (§1) The half inhibitory concentration IC50 of proliferation of three kinds of tumor cell strain (U87MG, PC-3, BT474) for 12 candidate compounds of the present invention is detected by CCK-8 detection kits.
BT474 human breast cancer cell strain (cell bank of Chinese Academy of Sciences) Reagents and materials:
(§2) The studied compounds are dissolved by DMSO to make the final concentration 10 mM.
(§3) • a) Collecting the cells in logarithmic phase, counting, and resuspending the cells with complete medium. • b) Adjusting the concentration of cells to a suitable concentration, inoculating in 96 well plates, each well is inoculated to 100 μl cell suspension.
(§4) c) incubating cells for 24 hours in a 5% CO2 incubator at temperature of 37° C., under the condition of 100% relative humidity.
(§5) a) The cells in logarithmic phase is collected, counted, resuspended with complete medium. The concentration of cells is adjusted to a suitable concentration (determined in accordance with the optimizable test results of cell density), and the cells is inoculated in 96 well plates, wherein each well is inoculated 100 μl cell suspension, Cells are incubated for 24 hours in 5% CO2 incubator at temperature of 37° C. under the condition of 100% relative humidity.
(§6) b) The test compounds are diluted to 500 μM with culture medium, then diluted in series eight times. […] as 25 μl/well. The final concentrations of the compounds are diluted from 100 μM to 0 μM, with 4 times dilution, and there are a total of 10 concentration points.
(§7) c) Cells are incubated for 72 hours in 5% CO2 incubator at temperature of 37° C. under the condition of 100% relative humidity.
(§8) d) The culture medium is aspirated and discarded, and complete medium containing 10% CCK-8 is incubated in a incubator at 37° C. for 2˜4 hours.
(§9) e) After shocking gently, the absorbance of the culture medium is measured at 450 nm wavelength on SpectraMax M5 Microplate Reader, with the absorbance at 650 nm as reference, to calculate the inhibition rate.

[3] = biological target: T2, PI3 K γ (Homo sapiens, UniProt P48736); test: Inhibitory activity to PI3K γ, PI 3-Kinase (human) HTRF Assay kit; type: biochemical; settings: read-out: Inhibition rate % to PI3 K γ
T2 construct: purchased Biology, Medicilon
T2 sequence (P48736 whole entry): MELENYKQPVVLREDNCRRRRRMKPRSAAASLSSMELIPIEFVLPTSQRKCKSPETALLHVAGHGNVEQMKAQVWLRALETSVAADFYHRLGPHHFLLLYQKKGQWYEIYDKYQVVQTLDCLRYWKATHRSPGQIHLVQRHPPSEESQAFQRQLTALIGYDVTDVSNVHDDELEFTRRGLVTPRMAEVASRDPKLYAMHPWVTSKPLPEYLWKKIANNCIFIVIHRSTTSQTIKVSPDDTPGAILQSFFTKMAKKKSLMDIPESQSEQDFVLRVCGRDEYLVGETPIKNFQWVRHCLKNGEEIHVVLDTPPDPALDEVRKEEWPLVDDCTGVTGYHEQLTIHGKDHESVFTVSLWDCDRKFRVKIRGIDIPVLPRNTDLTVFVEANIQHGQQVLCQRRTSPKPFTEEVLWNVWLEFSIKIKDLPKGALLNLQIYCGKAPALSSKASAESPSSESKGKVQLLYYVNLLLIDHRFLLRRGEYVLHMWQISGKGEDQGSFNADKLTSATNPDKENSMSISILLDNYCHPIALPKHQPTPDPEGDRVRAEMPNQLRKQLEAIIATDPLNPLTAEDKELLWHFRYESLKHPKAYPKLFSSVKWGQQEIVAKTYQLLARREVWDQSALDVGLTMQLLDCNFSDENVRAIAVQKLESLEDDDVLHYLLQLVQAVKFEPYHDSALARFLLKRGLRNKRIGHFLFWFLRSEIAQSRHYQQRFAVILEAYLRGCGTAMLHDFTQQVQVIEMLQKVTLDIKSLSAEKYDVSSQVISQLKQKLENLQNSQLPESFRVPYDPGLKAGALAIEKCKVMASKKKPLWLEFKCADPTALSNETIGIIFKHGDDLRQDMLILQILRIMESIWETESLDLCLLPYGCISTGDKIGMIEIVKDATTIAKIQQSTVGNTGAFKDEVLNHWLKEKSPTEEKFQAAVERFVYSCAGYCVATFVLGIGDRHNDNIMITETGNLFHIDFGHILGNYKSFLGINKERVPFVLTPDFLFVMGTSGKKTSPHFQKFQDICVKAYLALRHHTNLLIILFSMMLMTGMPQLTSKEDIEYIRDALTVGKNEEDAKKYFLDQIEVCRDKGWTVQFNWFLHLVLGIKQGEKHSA
How it was run: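 HTRF kinase assay with PI3Kγ at 80 ng/well, 10 μM PIP2 and 100 μM ATP (both final) in DTT-containing reaction buffer, 1% DMSO. Preliminary screen at 10 μM and 1 μM compound, followed by IC50 determination for selected compounds.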

[4] = biological target: T3, PDGFR β enzyme (Homo sapiens, UniProt P09619); test: Inhibitory activity to PDGFR β enzyme, HTRF kinEASE TK kit; type: biochemical; settings: read-out: Inhibition rate % (PDGFR β)
T3 construct: purchased Invitrogen P3082
T3 sequence (P09619 33-1106): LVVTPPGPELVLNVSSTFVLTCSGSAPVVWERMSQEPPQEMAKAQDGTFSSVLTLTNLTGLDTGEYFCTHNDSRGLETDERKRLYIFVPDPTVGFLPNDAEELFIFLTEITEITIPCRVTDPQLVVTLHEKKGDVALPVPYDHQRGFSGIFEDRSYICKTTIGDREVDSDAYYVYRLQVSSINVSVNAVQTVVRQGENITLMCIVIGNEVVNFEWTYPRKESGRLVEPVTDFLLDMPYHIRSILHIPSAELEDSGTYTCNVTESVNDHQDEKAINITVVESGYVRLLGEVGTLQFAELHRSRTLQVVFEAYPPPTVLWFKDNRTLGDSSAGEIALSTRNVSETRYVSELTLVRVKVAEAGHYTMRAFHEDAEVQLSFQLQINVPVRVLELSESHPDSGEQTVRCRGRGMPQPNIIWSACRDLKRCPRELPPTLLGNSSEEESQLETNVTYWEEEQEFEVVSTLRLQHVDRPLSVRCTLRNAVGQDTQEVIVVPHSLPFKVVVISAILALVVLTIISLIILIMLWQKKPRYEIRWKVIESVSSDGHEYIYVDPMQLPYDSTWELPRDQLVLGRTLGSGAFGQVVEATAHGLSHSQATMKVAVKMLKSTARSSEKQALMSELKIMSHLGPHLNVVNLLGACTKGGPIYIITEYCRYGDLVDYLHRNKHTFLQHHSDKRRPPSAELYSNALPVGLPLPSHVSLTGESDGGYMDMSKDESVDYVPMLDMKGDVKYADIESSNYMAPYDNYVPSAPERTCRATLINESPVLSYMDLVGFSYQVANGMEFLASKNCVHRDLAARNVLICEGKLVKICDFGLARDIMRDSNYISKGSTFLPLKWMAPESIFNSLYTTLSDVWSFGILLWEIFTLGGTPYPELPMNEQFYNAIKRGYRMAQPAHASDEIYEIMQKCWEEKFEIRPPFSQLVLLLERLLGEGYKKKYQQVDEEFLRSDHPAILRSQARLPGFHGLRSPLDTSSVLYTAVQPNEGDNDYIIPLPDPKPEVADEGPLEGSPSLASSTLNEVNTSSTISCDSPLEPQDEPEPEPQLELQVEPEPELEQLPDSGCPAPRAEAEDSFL
How it was run: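 Recombinant human PDGFRβ phosphorylating TK-substrate in kinase buffer containing MgCl2, MnCl2, DTT and SEB, with ATP. Phosphorylation detected by HTRF using TK-Ab-Cryptate and Sa-XL665.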

[5] = tested on: PC-3 cell Akt (Ser473) phosphorylation; test: Inhibition of phosphorylation level of PC-3 cell Akt (Ser473), Cisbio HTRF phospho Akt (Ser473) cell-based assay; parameters: species or system human; settings: hEGF 100 ng/ml stimulation, 1st and 2nd test where printed
Experimental: The inhibitory activity of the compounds of present invention to the phosphorylation level of PC-3 cell Akt (Ser473) is studied by using Cisbio HTRF phospho Akt (Ser473) cell-based assay test kit.
Cell strain: PC-3 prostate cancer cells line (cell bank of Chinese Academy of Sciences) is cultured by using culture medium (F12K+10% FBS).
hEGF is prepared as stock solution of 100 ug/ml with 10 mM acetic acid, and the stock solution is diluted to 200 ng/ml with serum-free medium, added 50 ul to each well to be stimulated.
b) Preparation of Complete Lysate • 4×Lysis Buffer is diluted 4 times with ddH2O to prepare 1×Lysis Buffer. • 100×Blocking Reagent is diluted 100 times with 1×Lysis Buffer.
c) Preparation of Detection Liquid • 20×Anti-Phospho-Akt is diluted 20 times with Detection Buffer. • 20×Anti-Akt is diluted 20 times with Detection Buffer.
The compounds are diluted with DMSO, and the working concentration of compounds is 100 times of detection concentration.
Cells in logarithmic growth phase are collected, counted, and resuspended with complete culture medium;
The cell concentration is adjusted to appropriate concentration, and cell suspension is inoculated into 96 well plates at 50 μl per well;
Cells are incubated for more than 4 h in the 5% CO2 incubator at temperature of 37° C., relative humidity of 100%;
Cell plate is removed from the incubator. The cell suspension is aspirated gently, and 50 ul serum-free F12K medium is quickly added, then the cell plate is placed into the incubator to culture overnight.
The compounds are diluted in a linear gradient with DMSO.
0.5 ul compounds is added into the test well, mixed on oscillators, and incubated at room temperature for 2 hours.
Proportioned hEGF solution is added to test well at 50 μl per well, and the final concentration is 100 ng/ml. serum-free medium is added into The negative control well at 50 μl per well.
The solution is mixed on oscillator and incubated at room temperature for 2 hours.
The liquid in 96 well plates is aspirated by multichannel pipette or the supernatant is discarded gently. The proportioned complete lysate is added quickly at 50 μl per well.
The solution is mixed on oscillator and lysed at room temperature for 30 min.
16 μl cell lysate is transferred from the 96 well plates to white low volume 384 well plates, and the proportioned two pairs of detection antibody are added. The solution is mixed on oscillator, and incubated at room temperature for 4 hours to detect the readings.

[6] = tested on: U87MG human glioblastoma Multiforme cell strain; test: Antitumor cell proliferation in vitro, CCK-8 detection kit, U87MG; type: cell-based; settings: U-87 MG, 72 h, U-87MG cells, 1st and 2nd test where printed
Experimental: as §1
U87MG human glioblastoma Multiforme cell strain (cell bank of Chinese Academy of Sciences)
as §2, §3, §4, §5, §6, §7, §8, §9

[7] = tested on: PC-3 human prostate cancer cell strain; test: Antitumor cell proliferation in vitro, CCK-8 detection kit, PC-3; type: cell-based; settings: PC-3 cells, 1st and 2nd test where printed
Experimental: as §1
PC-3 human prostate cancer cell strain (cell bank of Chinese Academy of Sciences)
as §2, §3, §4, §5, §6, §7, §8, §9

[8] = biological target: T4, PI3K α (Homo sapiens, UniProt P42336); test: Inhibitory activity to PI3K α, PI 3-Kinase (human) HTRF Assay kit; type: biochemical; settings: read-out: % Inhibition Rate to PI3K α
T4 construct: purchased Millipore 14-602
T4 sequence (P42336 whole entry): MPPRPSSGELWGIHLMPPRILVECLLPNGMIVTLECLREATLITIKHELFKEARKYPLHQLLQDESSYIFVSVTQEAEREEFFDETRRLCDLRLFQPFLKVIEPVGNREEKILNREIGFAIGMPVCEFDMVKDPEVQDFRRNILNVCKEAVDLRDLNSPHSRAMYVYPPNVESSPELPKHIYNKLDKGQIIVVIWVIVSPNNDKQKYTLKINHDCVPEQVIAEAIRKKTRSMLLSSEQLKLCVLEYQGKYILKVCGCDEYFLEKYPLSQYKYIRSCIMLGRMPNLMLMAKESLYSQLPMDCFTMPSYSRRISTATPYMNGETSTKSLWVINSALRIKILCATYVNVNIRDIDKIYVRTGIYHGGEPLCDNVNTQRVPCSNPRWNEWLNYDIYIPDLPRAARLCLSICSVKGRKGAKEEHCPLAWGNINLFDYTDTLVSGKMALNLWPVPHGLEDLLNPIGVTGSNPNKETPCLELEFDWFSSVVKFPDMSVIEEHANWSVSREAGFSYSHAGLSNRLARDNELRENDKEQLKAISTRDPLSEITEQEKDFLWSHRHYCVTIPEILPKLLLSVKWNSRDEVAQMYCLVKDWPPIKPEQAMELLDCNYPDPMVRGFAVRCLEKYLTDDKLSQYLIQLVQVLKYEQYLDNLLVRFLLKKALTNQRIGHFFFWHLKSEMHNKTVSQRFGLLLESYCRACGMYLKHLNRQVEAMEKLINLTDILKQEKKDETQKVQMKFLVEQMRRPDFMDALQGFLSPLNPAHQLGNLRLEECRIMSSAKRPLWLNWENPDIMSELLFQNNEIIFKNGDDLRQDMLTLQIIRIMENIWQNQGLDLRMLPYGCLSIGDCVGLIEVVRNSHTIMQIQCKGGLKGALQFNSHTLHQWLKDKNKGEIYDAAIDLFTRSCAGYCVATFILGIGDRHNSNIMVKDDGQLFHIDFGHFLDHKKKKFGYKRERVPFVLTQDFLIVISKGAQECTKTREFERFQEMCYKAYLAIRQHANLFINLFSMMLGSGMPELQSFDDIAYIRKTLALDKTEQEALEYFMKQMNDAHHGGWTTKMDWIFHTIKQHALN
T4 sequence (P27986 whole entry partner): as the sequence (P27986 whole entry partner) above
Text: Study on the inhibitory activity of the compounds of present invention to PI 3κα, PI3κδ and PI3κγ. Two or three concentrations of the compounds are selected to preliminary screening to calculate respectively the activity inhibition rate of the compounds of corresponding concentrations to enzyme, then the compounds with better activity are selected by preliminary screening for IC50 test.
PI 3-Kinase (human) HTRF™ Assay kit (Cat.33-017, Millipore)
PI 3k α (Cat.14-602, Millipore)
4× Reaction Buffer (Cat.33-002, Millipore) is diluted with ddH2O to 1.33×, and 1M DTT is added to make the final concentration as 6.67 mM. For example, 10 μL DTT is added into 500 μL 4× Reaction Buffer, and water is added to 1.5 mL.
The Test compounds are dissolved with DMSO to 1 mM as storage liquid. 2 μL of each of storage liquid is added into 48 μL ddH2O, to obtain the 40 μM compounds solution containing 4% DMSO. After mixing, 3 μL of each of the solution is added into 27 μL 4% DMSO (in ddH2O) to obtain the 4 μM compounds solution. 5 μL of each dilute solution is added into 384-well plates, then the final concentration of the compounds in the 20 μL final kinase reaction system is 10 μM and 1 μM respectively contained 1% DMSO. The dilution methods of compounds are similar to the preliminary screening in IC50 test.
2×PIP2 working fluid is prepared with 1.33× reaction buffer to the final concentration of 20 μM.
The screening concentration of PI 3k α kinase: 8 ng/well,
Kinase is diluted with 2×PIP2 operating fluid, the concentration of kinase operating fluid is 2 times of screening concentration.
10 mM ATP is diluted with 1.33× reaction buffer to 400 μM. The concentration of ATP is 100 μM in 20 μL kinase reaction system.
Stop A and Stop B are mixed according to the proportion of 3:1, and are placed for 2 hours at room temperature to obtain the stop solution available.
DM C, DM A and DM B are mixed according to the proportion of 18:1:1, and are placed for 2 hours at room temperature to obtain the detection solution available.

[9] = 1 μM (Table 7), read-out: Inhibition rate % to PI3Kδ
[10] = 10 μM (Table 7), read-out: Inhibition rate % to PI3Kδ
[11] = 0.4 μM (Table 8), read-out: Inhibition rate % to PI3K delta
[12] = 2 μM (Table 8), read-out: Inhibition rate % to PI3K delta
[13] = 10 μM (Table 8), read-out: Inhibition rate % to PI3K delta

Compound	inhibition at 1 µM [1, 9]	inhibition at 10 µM [1, 10]	IC50 [6]	IC50 ([2]; Homo sapiens, BT-474, 72 h)	IC50 ([7]; Homo sapiens, PC-3, 72 h)	inhibition at 1 µM [8]	inhibition at 10 µM [8]	IC50 ([5]; Homo sapiens, PC-3, PC-3 cells)	other results
CC(C)Oc1nc(Nc2ccc3nccc(-c4ccccc4)c3c2)nc2[nH]cnc12 [MED1007-51, N-(6-isopropoxy-9H-purine-2-yl)-4-(phenyl-1-yl) quinoline-6-amine]	39.6%	75.5%	–	–	–	–	–	–	IC50 ([2]; 72 hours): 0.0814 µM and 0.114 µM; inhibition at 1 µM [3]: 1.16%; inhibition at 10 µM [3]: 56.2%; inhibition at 1 µM [4]: 11.9%; inhibition at 10 µM [4]: 33.6%; IC50 ([5]; PC-3 cells): 1.14 nM and 0.683 nM
CC(C)Oc1nc(Nc2ccc3ncccc3c2)nc2[nH]cnc12 [MED1007-104, N-(6-isopropoxy-9H-purine-2-yl) quinoline-6-amine]	–	–	18.1 µM	1.36 µM	1.7 µM	60.3%	106%	–	Inhibition rate % to PI3Kδ ([1]; 1 μM (Table 7), 1 µM): 57.14%; Inhibition rate % to PI3Kδ ([1]; 10 μM (Table 7), 10 µM): 85.86%
CC(C)Oc1nc(Nc2ccc3nccc(-c4ccccc4)c3c2)nc2[nH]cnc12 [MED1007-108, N-(6-isopropoxy-9H-purine-2-yl)-4-(phenyl-1-yl) quinoline-6-amine-methanesulfonate]	–	–	–	0.063 µM	0.0716 µM	–	–	3.83 nM	inhibition at 0.4 µM [1, 11]: 40.5%; inhibition at 2 µM [1, 12]: 78.6%; inhibition at 10 µM [1, 13]: 89%; IC50 ([2]; 72 hours): 0.035 µM; IC50 ([7]; 72 hours): 0.113 µM; IC50 ([5]; PC-3 cells): 6.51 nM
c1ccc(-c2ccnc3ccc(Nc4nc(N5CCOCC5)c5nc[nH]c5n4)cc23)cc1 [MED1007-109S, N-(6-morpholine-9H-purine-2-yl)-4-phenyl quinoline-6-amine dihydrate di-methanesulfonate]	–	–	18.3 µM	0.612 µM	0.697 µM	–	–	116 nM	Inhibition rate % to PI3K delta ([1]; 0.4 μM (Table 8), 0.4 µM): 30.22%; Inhibition rate % to PI3K delta ([1]; 2 μM (Table 8), 2 µM): 57.34%; Inhibition rate % to PI3K delta ([1]; 10 μM (Table 8), 10 µM): 94.36%
c1cnc2ccc(Nc3nc(NC4CC4)c4nc[nH]c4n3)cc2c1 [XC-302, reference compound]	–	–	17.8 µM	5.87 µM	15 µM	–	–	–	inhibition at 1 µM [3]: 18.3%; inhibition at 10 µM [3]: 49.3%; inhibition at 1 µM ([4]; 1 μM): 51.1%; inhibition at 10 µM ([4]; 10 μM): 96.5%

More lines, main results first:

inhibition at 1 µM [1, 9]	inhibition at 10 µM [1, 10]	IC50 [6]	IC50 ([2]; Homo sapiens, BT-474, 72 h)	IC50 ([7]; Homo sapiens, PC-3, 72 h)	inhibition at 1 µM [8]	inhibition at 10 µM [8]	IC50 ([5]; Homo sapiens, PC-3, PC-3 cells)	Compound	other results
75.7%	95.6%	8.6 µM	0.441 µM	0.616 µM	49.5%	126%	67 nM	CC(C)Nc1nc(Nc2ccc3nccc(-c4ccccc4)c3c2)nc2[nH]cnc12 [MED1007-101, N6-isopropyl-N2-(4-phenylquinoline-6-yl)-9H-purine-2,6-diamine]	–
74.2%	105%	41 µM	0.42 µM	1.02 µM	60.4%	111%	–	CCC(CC)Oc1nc(Nc2ccc3nccc(-c4ccccc4)c3c2)nc2[nH]cnc12 [MED1007-105, N-(6-(pentyl-3-yloxyl)-9H-purine-2-yl)-4-phenyl quinoline-6-amine]	–
–	–	7.36 µM	1.95 µM	1.57 µM	–	–	260 nM	c1cc(C2CC2)c2cc(Nc3nc(NC4CC4)c4nc[nH]c4n3)ccc2n1 [MED1007-115, N6-cyclopropyl-N2-(4-cyclopropylquinoline-6-yl)-9H-purine-2,6-diamine dihydrate di-methanesulfonate]	inhibition at 0.4 µM [1, 11]: 36.8%; inhibition at 2 µM [1, 12]: 60.2%; inhibition at 10 µM [1, 13]: 94.6%
